Laboratory results from article doi:10.1101/2023.10.20.563248v1 (biorxiv, 2023).

Legend:
Conditions in all cases: 1 µM; inhibitor
TGFBR2 = TGFBR2 (Homo sapiens, UniProt P37173)
JAK3 = JAK3 (Homo sapiens, UniProt P52333)
TBK1 = TBK1 (Homo sapiens, UniProt Q9UHD2)
INSRR = INSRR (Homo sapiens, UniProt P14616)
MAPKAPK3 = MAPKAPK3 (Homo sapiens, UniProt Q16644)
PAK7 = PAK7 (Homo sapiens, UniProt Q9P286)
EPHA2 = EPHA2 (Homo sapiens, UniProt P29317)
CDK2/CycD1 = CDK2/CycD1 (Homo sapiens, UniProt P24941)
WNK2 = WNK2 (Homo sapiens, UniProt Q9Y3S1)
DYRK4 = DYRK4 (Homo sapiens, UniProt Q9NR20)
MINK1 = MINK1 (Homo sapiens, UniProt Q8N4C8)
CDK10 = CDK10 (Homo sapiens, UniProt Q15131)
TRKB = TRKB (Homo sapiens, UniProt Q16620)
CAMK2G = CAMK2G (Homo sapiens, UniProt Q13555)
CDK9/CycT1 = CDK9/CycT1 (Homo sapiens, UniProt P50750)
FGFR1 = FGFR1 (Homo sapiens, UniProt P11362)
HIPK1 = HIPK1 (Homo sapiens, UniProt Q86Z02)
ERK2 = ERK2 (Homo sapiens, UniProt P28482)
ERK5 = ERK5 (Homo sapiens, UniProt Q13164)
EPHA6 = EPHA6 (Homo sapiens, UniProt Q9UF33)
TLK1 = TLK1 (Homo sapiens, UniProt Q9UKI8)
STK23 = STK23 (Homo sapiens, UniProt Q9UPE1)
IRAK4 = IRAK4 (Homo sapiens, UniProt Q9NWZ3)
EPHA7 = EPHA7 (Homo sapiens, UniProt Q15375)
PHKG1 = PHKG1 (Homo sapiens, UniProt Q16816)
BRSK2 = BRSK2 (Homo sapiens, UniProt Q8IWQ3)
BRAF = BRAF (Homo sapiens, UniProt P15056)
MAP4K4 = MAP4K4 (Homo sapiens, UniProt O95819)
SGK1 = SGK1 (Homo sapiens, UniProt O00141)
EPHA1 = EPHA1 (Homo sapiens, UniProt P21709)
CDC42BPB = CDC42BPB (Homo sapiens, UniProt Q9Y5S2)
Chain of CDC42BPB (Q9Y5S2 whole entry): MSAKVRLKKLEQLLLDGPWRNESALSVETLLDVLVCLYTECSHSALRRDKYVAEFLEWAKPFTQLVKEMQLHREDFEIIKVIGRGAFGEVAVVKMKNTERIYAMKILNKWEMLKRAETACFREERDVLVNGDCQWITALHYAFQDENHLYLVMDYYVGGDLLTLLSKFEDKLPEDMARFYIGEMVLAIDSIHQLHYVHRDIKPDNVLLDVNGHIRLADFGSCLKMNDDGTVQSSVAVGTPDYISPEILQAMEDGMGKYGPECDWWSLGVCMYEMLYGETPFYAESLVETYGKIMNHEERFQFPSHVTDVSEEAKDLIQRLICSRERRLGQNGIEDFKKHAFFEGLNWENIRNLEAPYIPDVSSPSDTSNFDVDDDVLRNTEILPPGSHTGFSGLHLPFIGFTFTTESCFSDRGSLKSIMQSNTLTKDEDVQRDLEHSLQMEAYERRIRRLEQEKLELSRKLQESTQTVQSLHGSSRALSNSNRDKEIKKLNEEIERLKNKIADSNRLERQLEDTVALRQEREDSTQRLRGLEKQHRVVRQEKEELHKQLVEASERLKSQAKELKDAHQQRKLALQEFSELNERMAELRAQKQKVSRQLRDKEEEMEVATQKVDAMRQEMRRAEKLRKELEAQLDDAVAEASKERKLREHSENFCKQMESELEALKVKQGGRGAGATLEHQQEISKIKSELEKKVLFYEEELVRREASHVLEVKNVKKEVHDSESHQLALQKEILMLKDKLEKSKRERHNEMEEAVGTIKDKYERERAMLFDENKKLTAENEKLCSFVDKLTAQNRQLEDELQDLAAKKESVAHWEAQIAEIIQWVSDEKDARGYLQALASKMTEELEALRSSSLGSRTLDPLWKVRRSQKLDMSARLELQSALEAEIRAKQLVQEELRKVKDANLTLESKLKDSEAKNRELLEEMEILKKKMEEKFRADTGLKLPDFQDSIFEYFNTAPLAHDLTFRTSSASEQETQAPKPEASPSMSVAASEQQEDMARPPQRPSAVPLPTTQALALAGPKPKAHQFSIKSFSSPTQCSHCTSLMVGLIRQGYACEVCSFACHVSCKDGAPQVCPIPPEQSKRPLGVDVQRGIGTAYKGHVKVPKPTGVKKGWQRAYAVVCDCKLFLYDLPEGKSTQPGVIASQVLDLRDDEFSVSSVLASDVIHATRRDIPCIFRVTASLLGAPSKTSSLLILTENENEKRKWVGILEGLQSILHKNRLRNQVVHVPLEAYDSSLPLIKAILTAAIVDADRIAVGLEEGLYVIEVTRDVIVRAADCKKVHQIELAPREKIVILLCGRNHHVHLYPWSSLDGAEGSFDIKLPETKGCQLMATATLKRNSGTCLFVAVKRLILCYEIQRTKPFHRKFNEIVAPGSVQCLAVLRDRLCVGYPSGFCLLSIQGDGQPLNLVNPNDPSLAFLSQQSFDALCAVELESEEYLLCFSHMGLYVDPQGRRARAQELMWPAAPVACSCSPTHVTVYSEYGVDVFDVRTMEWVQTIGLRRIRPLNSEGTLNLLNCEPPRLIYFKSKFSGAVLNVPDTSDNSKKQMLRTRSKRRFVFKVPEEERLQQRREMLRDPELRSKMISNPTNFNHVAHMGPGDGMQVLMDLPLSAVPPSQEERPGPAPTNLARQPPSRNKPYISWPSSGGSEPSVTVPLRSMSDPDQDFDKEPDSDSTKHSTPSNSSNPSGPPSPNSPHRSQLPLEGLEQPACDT

Chain of PAK7 (Q9P286 whole entry): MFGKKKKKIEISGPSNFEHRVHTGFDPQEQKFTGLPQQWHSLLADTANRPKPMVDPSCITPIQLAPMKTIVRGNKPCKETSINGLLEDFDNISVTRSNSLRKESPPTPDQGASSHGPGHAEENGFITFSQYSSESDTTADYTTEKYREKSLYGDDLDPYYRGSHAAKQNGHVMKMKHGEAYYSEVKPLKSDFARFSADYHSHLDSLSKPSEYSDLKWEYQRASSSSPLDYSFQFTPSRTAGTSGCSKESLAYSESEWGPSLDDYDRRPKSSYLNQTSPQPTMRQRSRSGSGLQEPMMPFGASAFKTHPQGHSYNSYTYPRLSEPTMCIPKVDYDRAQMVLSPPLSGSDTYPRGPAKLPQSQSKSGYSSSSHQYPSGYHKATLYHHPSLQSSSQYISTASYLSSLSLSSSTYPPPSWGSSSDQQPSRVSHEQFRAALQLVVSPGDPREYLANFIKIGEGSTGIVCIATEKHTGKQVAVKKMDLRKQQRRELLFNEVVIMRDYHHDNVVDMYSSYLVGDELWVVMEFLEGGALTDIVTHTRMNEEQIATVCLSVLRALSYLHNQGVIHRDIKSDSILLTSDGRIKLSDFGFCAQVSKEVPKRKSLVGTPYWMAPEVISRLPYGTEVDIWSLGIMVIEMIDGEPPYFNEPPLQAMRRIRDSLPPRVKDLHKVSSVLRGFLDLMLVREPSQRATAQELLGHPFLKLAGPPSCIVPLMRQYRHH
Chain of EPHA7 (Q15375 whole entry): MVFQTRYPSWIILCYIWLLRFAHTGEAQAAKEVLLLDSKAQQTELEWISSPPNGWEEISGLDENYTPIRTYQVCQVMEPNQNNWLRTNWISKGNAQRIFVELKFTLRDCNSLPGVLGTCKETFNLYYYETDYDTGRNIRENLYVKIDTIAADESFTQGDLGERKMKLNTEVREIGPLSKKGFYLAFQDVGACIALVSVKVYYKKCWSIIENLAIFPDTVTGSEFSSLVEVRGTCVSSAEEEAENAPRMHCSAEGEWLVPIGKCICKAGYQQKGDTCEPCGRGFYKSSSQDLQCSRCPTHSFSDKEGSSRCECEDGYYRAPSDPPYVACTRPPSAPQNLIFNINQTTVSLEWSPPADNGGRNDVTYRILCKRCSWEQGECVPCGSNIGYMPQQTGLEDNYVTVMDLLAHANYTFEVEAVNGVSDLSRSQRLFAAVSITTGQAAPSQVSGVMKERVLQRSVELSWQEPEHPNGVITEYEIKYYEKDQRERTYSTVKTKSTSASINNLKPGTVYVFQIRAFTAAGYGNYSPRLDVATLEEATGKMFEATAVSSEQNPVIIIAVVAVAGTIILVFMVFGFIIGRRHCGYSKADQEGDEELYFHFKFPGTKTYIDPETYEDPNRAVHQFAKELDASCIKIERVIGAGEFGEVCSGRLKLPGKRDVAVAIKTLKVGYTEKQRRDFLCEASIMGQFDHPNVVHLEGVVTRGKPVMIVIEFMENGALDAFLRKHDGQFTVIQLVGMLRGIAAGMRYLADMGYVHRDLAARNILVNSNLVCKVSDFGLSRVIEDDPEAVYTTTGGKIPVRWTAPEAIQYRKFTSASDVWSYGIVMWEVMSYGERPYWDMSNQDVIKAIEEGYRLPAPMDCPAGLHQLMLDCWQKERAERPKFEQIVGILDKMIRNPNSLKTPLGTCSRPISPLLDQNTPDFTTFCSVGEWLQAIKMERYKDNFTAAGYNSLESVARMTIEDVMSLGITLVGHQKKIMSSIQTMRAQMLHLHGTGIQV
Chain of BRSK2 (Q8IWQ3 whole entry): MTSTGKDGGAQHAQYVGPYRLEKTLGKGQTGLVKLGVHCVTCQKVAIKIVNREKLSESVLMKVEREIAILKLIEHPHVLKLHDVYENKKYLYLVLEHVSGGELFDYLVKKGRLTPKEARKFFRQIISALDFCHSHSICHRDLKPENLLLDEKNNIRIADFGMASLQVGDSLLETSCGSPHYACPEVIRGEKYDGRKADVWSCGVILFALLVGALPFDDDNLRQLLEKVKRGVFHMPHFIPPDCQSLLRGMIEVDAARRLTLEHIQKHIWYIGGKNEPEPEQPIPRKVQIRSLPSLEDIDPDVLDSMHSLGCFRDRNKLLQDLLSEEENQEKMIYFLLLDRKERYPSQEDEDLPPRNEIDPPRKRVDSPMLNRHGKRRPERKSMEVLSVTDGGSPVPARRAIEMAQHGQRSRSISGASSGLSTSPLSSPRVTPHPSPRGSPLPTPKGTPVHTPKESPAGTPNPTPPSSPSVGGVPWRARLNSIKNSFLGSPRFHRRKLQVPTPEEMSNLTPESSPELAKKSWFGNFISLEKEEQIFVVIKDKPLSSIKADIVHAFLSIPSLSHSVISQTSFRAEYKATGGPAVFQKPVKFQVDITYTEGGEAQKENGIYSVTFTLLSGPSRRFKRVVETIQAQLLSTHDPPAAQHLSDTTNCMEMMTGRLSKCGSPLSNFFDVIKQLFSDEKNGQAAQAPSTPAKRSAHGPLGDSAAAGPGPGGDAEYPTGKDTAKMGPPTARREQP
Chain of ERK2 (P28482 whole entry): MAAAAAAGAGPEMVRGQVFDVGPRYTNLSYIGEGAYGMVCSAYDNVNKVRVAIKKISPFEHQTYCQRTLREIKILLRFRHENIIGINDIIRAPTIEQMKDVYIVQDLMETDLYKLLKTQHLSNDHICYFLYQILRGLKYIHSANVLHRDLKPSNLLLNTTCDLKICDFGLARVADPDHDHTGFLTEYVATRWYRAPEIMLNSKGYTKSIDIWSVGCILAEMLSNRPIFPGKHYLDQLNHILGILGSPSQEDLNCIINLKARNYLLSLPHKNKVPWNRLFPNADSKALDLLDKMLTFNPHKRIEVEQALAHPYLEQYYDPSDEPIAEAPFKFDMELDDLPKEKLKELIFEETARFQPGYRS
Chain of CDK10 (Q15131 whole entry): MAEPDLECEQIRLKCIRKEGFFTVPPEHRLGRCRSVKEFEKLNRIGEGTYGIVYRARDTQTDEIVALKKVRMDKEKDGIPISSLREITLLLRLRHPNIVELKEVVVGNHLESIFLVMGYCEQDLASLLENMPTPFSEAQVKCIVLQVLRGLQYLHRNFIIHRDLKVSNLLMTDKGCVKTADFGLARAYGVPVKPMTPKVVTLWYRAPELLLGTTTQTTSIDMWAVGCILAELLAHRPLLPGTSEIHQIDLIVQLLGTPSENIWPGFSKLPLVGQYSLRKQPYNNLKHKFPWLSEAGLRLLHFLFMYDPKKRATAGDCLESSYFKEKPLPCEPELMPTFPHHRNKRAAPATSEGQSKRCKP

O=C1NCCCCCNc2nc(c3ccccc3n2)Nc2cc1[nH]n2 [21c, (Z)-3^1H-2,5,11-triaza-1(4,2)-quinazolina-3(3,5)-pyrazolacycloundecaphan-4-one]
21c Remaining activity, percent of control [%] (TGFBR2): 81.8% | 21c Remaining activity, percent of control [%] (JAK3): 115.4% | 21c Remaining activity, percent of control [%] (TBK1): 111.6% | 21c Remaining activity, percent of control [%] (INSRR): 96.5% | 21c Remaining activity, percent of control [%] (MAPKAPK3): 95.7% | 21c Remaining activity, percent of control [%] (PAK7): 87.1% | 21c Remaining activity, percent of control [%] (EPHA2): 82.5% | 21c Remaining activity, percent of control [%] (CDK2/CycD1): 121.3% | 21c Remaining activity, percent of control [%] (WNK2): 94.8% | 21c Remaining activity, percent of control [%] (DYRK4): 95.6% | 21c Remaining activity, percent of control [%] (MINK1): 70.0% | 21c Remaining activity, percent of control [%] (CDK10): 85.1% | 21c Remaining activity, percent of control [%] (TRKB): 79.0% | 21c Remaining activity, percent of control [%] (CAMK2G): 132.6% | 21c Remaining activity, percent of control [%] (CDK9/CycT1): 85.7% | 21c Remaining activity, percent of control [%] (FGFR1): 80.9% | 21c Remaining activity, percent of control [%] (HIPK1): 97.2% | 21c Remaining activity, percent of control [%] (ERK2): 90.7% | 21c Remaining activity, percent of control [%] (ERK5): 93.4% | 21c Remaining activity, percent of control [%] (EPHA6): 97.4% | 21c Remaining activity, percent of control [%] (TLK1): 92.4% | 21c Remaining activity, percent of control [%] (STK23): 80.7% | 21c Remaining activity, percent of control [%] (IRAK4): 87.3% | 21c Remaining activity, percent of control [%] (EPHA7): 103.7% | 21c Remaining activity, percent of control [%] (PHKG1): 98.0% | 21c Remaining activity, percent of control [%] (BRSK2): 97.8% | 21c Remaining activity, percent of control [%] (BRAF): 89.7% | 21c Remaining activity, percent of control [%] (MAP4K4): 81.0% | 21c Remaining activity, percent of control [%] (SGK1): 90.0% | 21c Remaining activity, percent of control [%] (EPHA1): 99.3% | 21c Remaining activity, percent of control [%] (CDC42BPB): 106.6%
